This is an account of results in publication PMC9696361, “Nanocrystallization Improves the Solubilization and Cytotoxic Effect of a Poly (ADP-Ribose)-Polymerase-I Inhibitor” (Polymers, 2022).

Data set [1] can be described thus: Saturation solubility of pure OLA and its NCs. Particulars: thermodynamic from solid. It counts as physicochemical. The procedure: The excess amount of pure OLA and NCs in triplicate were added into 1 mL of each solvent in glass vials. The mixtures were vortexed for 30 s and put into an orbital shaking (at 100 stroke per min) water bath (Julabo®, Allentown, PA, USA) maintained at 37 ± 1 °C for 72 h. Thereafter, vials were taken out and kept at room temperature for 24 h to settle down the undissolved drugs. Then, the supernatants were collected, filtered by 0.45 µ filtration unit (Millipore, Molsheim, France), diluted (if needed) and 30 µL was injected into HPLC-UV system for the quantification of the dissolved drugs.

Details of data set [2]: method as in PMID 24700236. Particulars: cited from earlier work.
Data set [3] can be described thus: Oral pharmacokinetic study in rats. The data set is classed as in vivo, Male Wistar rats. As for the experimental part: Male Wistar rats were used for this study. The Standing Committee of Bioethics Research (SCBR) at Prince Sattam bin Abdulaziz University, Deanship of Scientific Research has granted the animal ethical approval (SCBR-030-2022) for in vivo studies on rats. Twelve rats were divided in two groups. Group-1 for OLA-AqS and Group-II for OLA-NCs. Each animal of the respective groups received OLA-AqS and OLA-NCs individually. Oral route was selected for the administration of all OLA formulations at 25 mg·kg^−1 of body weight equivalent dose of OLA was given orally to all animals. At predetermined time points (0.25, 0.5, 1, 3, 6 and 9 h) approximately 0.5 mL of blood was aspirated through retro orbital plexus from each animal. The samples were collected in heparinized tubes and centrifuged at 6000 rpm for 10 min and at 4 °C to obtain the plasma. Approximately 200 µL supernatant (plasma) was collected and stored at −80 °C till analysis was performed.
Previously reported RP-HPLC method was used for the analysis of OLA in the plasma samples [7, 20]. In brief, the HPLC system (Waters® 1500 Series, Milford, MA, USA) was fitted out with UV-dual absorbance detector (Waters® Model-2489), Binary pump (Waters® Moel-1525), Autosampler (Waters® Model-2707 plus). The HPLC-UV system was monitored and controlled by the “Breeze software”. A C18 Waters symmetry column (150 × 4.6 mm, 5 µm, particle size) was used for the elution of OLA and Paclitaxel (used as internal standard, IS). The mobile phase composed of ammonium acetate buffer (pH was adjusted to 3.5 by Orthophosphoric acid) and Methanol at 50:50 (v/v) was pumped at isocratic mode at the flow rate of 1 mL·min^−1. The UV-detection wavelength was 254 nm (for OLA) and 230 nm (for IS). The column heater temperature was set to 35 °C and the volume of injection was 30 µL.
Protein precipitation method (simple with high recovery) was used for the drug extraction from the collected plasma samples. The calibration curve samples were prepared by pipetting 50 μL of working stock solution of OLA (in methanol) and 20 μL of IS (20 µg/mL) into 140 μL of plasma and the mixture was vortexed for 30 s. Acetonitrile (290 μL) was added into the obtained mixture for protein precipitation, vortexed for 2 min and then centrifuged at 13,500 rpm for 10 min. Approximately 200 µL of the supernatant was collected and 30 µL of the supernatant was injected into HPLC system for the quantification of the drugs in the samples.
The results were represented as mean with standard deviation (± SD), unless otherwise indicated. The statistical analysis was performed using GraphPad Prism: Version-5.1 (GraphPad Software, Inc., San Diego, CA, USA). The pharmacokinetics parameters was calculated by “PK-Solver Software, Nanjing, China using MS-Excel-2013” through the non-compartmental approach. The comparative analysis of the data was accomplished by Student’s t-test and p < 0.05 was considered as statistically significant, unless otherwise indicated.

The test system of another data set is P-glycoprotein (Pgp). The arrangement: method as in PMID 24700236. Conditions: cited from earlier work.
Another data set deals with Caspase-3. In words: Caspase-3 by ELISA in MCF-7 cells. The data set is classed as cell-based, human. Particulars: OLA 10 µgmL^−1, vs untreated control. As for the experimental part: (§1) The p53, Caspase-3 and Caspase-9 activities were measured by ELISA kits following the manufacture’s protocol and reported works. The MCF-7 cells (5 × 10^4 cells/well) were seeded in 96-well plates. The seeded cells were treated with the AqS of OLA-pure and OLA-NCs. The concentration of OLA was kept 10 µgmL^−1, which was approximately near to the IC50 value of the OLA-NCs-2 (9.71 µgmL^−1). The untreated cells were served as control. All the treated cells were allowed to equilibrate at ambient temperature. Approximately 100 µL of p53, Caspase-3 and Caspase-9 reagents were transferred into the respective wells of the plate containing 100 µL of culture media. The plates were covered and stirred for 1–2 min at 500 rpm and then incubated at ambient temperature. After 1 h of incubation the OD was measured at 405 nm wavelength by microplate reader.
(In general: An ELISA detects its analyte on a solid surface through an enzyme-linked reagent.)

The test system of the next data set is MCF-7 cells. As to the kind of experiment: MTT or cell proliferation assay. It counts as cell-based. Conditions: Homo sapiens, MCF7, 48 h, 48 h of incubation, MTT. As for the experimental part:
The MCF-7 cells were procured from the American Type Cutler Collection (Manassas, VA, USA). Cells were grown in 50 cm^2 tissue culture flasks using “Dulbecco’s Modified Eagle Medium (DMEM) (UFC Biotech, Riyadh, Saudi Arabia)” at 37 °C in an incubator humidified by 5% CO2. The media was accompanied with 10% fetal bovine serum (Alpha Chemika, Mumbai, India), 1% mixture of Penicillin (100 units·mL^−1): Streptomycin (100 µg·mL^−1) by ThermoFischer Scientific, Waltham, MA, USA, Amphotericin-B (250 ngmL^−1) by Gibco® (Grand Island, NY, USA) and 1% of L-glutamine (BioWest, Riverside, MO, USA). The MTT was purchased from Sigma Aldrich, St. Louis, MO, USA. […]
The anticancer activity of pure drug (OLA)-AqS and OLA-NCs-2 against MCF-7 were examined by assessing the viability of the treated cells by MTT assay. […] The assay was done by observing the enzymatic reduction of a water-soluble dye [3-(4,5-dimethylthiazol-2-yl)-2,5-diphenyltetrazolium bromide] into an insoluble formazan, where the quantitation of formazan designates the relative viability of the cells. […] Optical density (OD) was measured at 570 nm using the spectrophotometric microplate reader (Synergy HT, BioTek Instruments, Winooskim, VT, USA). The cell viability (%) was calculated by Equation (4). […] The IC50 values were calculated as Log (inhibitor) versus normalized response on variable slopes through GraphPad Prism V-5.1. […]

Another data set has as its system Caspase-9. As to the kind of experiment: Caspase-9 by ELISA in MCF-7 cells. It counts as cell-based, human. Conditions: OLA 10 µgmL^−1, vs untreated control. The procedure: as §1
In a further data set the test system is p53. In words: p53 by ELISA in MCF-7 cells. It counts as cell-based, human. Particulars: OLA 10 µgmL^−1, vs untreated control. As for the experimental part:
as §1

A short description of data set [4]: Oral pharmacokinetic study in rats. The data set is classed as in vivo, Male Wistar rats. This is another data set of the same source.
[5] abbreviates: male, Wistar, rat, plasma, single oral dose 25 mg·kg^−1.

Values after ≈ are worked out from the molar mass of the structure shown.

Broadly, the solubility is the dissolved amount per volume that the medium holds. In general, Solubility refers to the concentration that dissolves in the medium under given conditions. Broadly, the AUC(0-inf) is the area under the concentration-time curve extrapolated to infinity. One may read the Tmax as the time from dosing to the highest level. As usually defined, the half-life is how long it takes for the measured level to halve. A higher half-life goes with slow loss. A word on the Cmax: it is the maximum level reached in the sampled fluid or tissue. One may read the IC50 as the concentration at which inhibition is half-maximal. With `O=C(c1cc(Cc2n[nH]c(=O)c3ccccc23)ccc1F)N1CCN(C(=O)C2CC2)CC1` [OLA, Olaparib], the solubility in data set [1] (0.1N HCl with 0.5% Soluplus, 37 °C, aqueous with cosolvent or surfactant or cyclodextrin, in 0.1N HCl (pH 1.2) with 0.5% Soluplus) is 31.1 ± 3.9 µg/mL (≈ 71.6 µM); in data set [1] (0.1N HCl with 0.5% Tween-80, 37 °C, aqueous with cosolvent or surfactant or cyclodextrin, in 0.1N HCl (pH 1.2) with 0.5% Tween-80), 12.7 ± 3.9 µg/mL (≈ 29.2 µM); in data set [1] (37 °C, simulated gastric fluid, in 0.1N HCl (pH 1.2)), 7.1 ± 2.7 µg/mL (≈ 16.3 µM). For the same compound, the solubility at 72 h in data set [1] (phosphate buffer (PBS) with 0.5% Soluplus, pH 7.4, aqueous with cosolvent or surfactant or cyclodextrin, in PBS with 0.5% Soluplus, 37 °C) came to 35.6 ± 7.2 µg/mL (≈ 81.9 µM); in data set [1] (phosphate buffer (PBS) with 0.5% Tween-80, pH 7.4, aqueous with cosolvent or surfactant or cyclodextrin, in PBS with 0.5% Tween-80, 37 °C) it was 14.2 ± 5.1 µg/mL (≈ 32.7 µM); in data set [1] (phosphate buffer (PBS), pH 7.4, aqueous buffer, in PBS, 37 °C) it was 9.3 ± 2.4 µg/mL (≈ 21.4 µM). The “Solubility at intestinal fluid pH” value in [2] was 0.16 mg·mL^−1. Further, the AUC(0-inf) in data set [3] (setting [5]) worked out at 913 ± 138 ng·h/mL. Also, the Tmax in data set [3] (setting [5]) turned out to be 2 h. In data set [3] (setting [5]), this compound showed a half-life of 1.36 ± 0.04 h. Further, the MRT inf in data set [3] (male, Wistar, rat, plasma, single oral dose 25 mg·kg^−1, read-out: MRT0-∞) is 3.37 ± 0.03 h. The compound also came in with a Cmax in [3] (male, Wistar, rat, single oral dose 25 mg·kg^−1, plasma) of 278 ± 46.5 ng/mL. The “AUMC0-∞” value in [3] (single oral dose 25 mg·kg^−1) is listed as 3081.17 ± 471.32 ng·mL^−1·h^2. Besides, the Cl/F in [3] (single oral dose 25 mg·kg^−1, listed as OLA-Pure) was found to be 6.94 ± 0.96 L/h; in [3] (single oral dose 25 mg·kg^−1, listed as OLA-pure) it was 6.94 L/h. Further, the “Concentration at which the Pgp-mediated efflux is saturated” value in the data set with P-glycoprotein (Pgp) is greater than 260 µM. The “Increased activities of Caspase-3 vs control” value with Caspase-3 is recorded as “approximately 4.3 folds”. Also, the IC50 with MCF-7 cells came to 28.4 µg/mL. In addition, in the data set on Caspase-9, the “Increased expression of Caspase-9 vs control” value is listed as roughly 2 folds. In the data set on p53, the “p53 protein expression, times higher than control” value is 7.2 times. The AUC(0-t) in data set [4] (male, Wistar, rat, plasma, single oral dose 25 mg·kg^−1, read-out: AUC0–12 h) was found to be 882 ± 137 ng·h/mL. The “Last plasma sample in which the drug was detected” value in data set [4] (oral, undetected in 10 h and 12 h samples) is reported as “up to 8 h”.
